Legend:
[1] = biological target: ErbB-2 (Epidermal Growth Factor Receptor 2) (Homo sapiens, UniProt P04626); assay: ELISA protein tyrosine kinase inhibition, ErbB-2; type: biochemical; conditions: Poly(Glu, Tyr) 4:1 substrate, ATP 5 μM, test samples at 10-5 mol/l, read-out: ErbB2 inhibitory activity (IC50 class)
Text: (§1) Determining the Effect of Test Samples at a Concentration of 10-5 Mol/l on the Activity of the Substrate Phosphoryation Catalyzed by EGFR (Epidermal Growth Factor Receptor 1), ErbB-2 (Epidermal Growth Factor Receptor 2), ErbB-4, KDR (Vascular Endothelial Growth Factor Receptor 2) Protein Tyrosine Kinases at Molecular Level
(§2) Enzyme-Linked Immunosorbent Assay (ELISA)
(§3) Main instrument: wavelength-tunable microplate reader (VERSAmax).
(§4) Main reagents: kinase reaction substrate Poly(Glu, Tyr) 4:1 from Sigma; anti-phosphotyrosine monoclonal antibody PY99 from Santa Cruz; horseradish peroxidase-labeled goat anti-mouse IgG from Calbiochem; ATP, DTT, OPD from Amresco, and ELISA plate from Corning.
(§5) Poly(Glu, Tyr)4:1 as an enzyme substrate was diluted by potassium ion-free PBS into 20 μg/ml, and an ELISA plate was coated and subjected to reaction for 12-16 h at 37° C. After the liquid in wells was removed, the plate was washed three time by T-PBS, 5 min for each time. The ELISA plate was then dried in an oven at 37° C. The coated wells were added with the test samples: the test samples were prepared for a stock solution with a concentration of 1×10^−2M in DMSO. The aliquot solution was stored at −20° C., and diluted to the desired concentration with reaction buffer before use. The resulting solution was added into the wells so that the final concentration of 10-5 mol/l in 100 μL reaction system can be obtained. At the same time, a positive control well was set up and a positive control compound Su11248 was added. ATP and test tyrosine kinases were added: ATP solution diluted with reaction buffer was added (the final concentration of ATP is 5 μM). Finally, the test tyrosine kinases solution diluted with reaction buffer was added. The total volume of the reaction system was […]. Meanwhile, a negative control well and a control well without enzyme were set up. The reaction system was placed in a wet box, and shaked for 1 hour at 37° C., shielding from light. After the reaction was complete, the plate was washed by T-PBS three times. Antibody PY99 was added at 100 μL/well; and the plate was shaked for 30 min at 37° C. After the reaction was complete, the plate was washed with T-PBS three times. Horseradish peroxidase-labeled goat anti-mouse IgG was added at 100 μL/well, and the plate was shaked for 30 min at 37° C. The plate was washed with T-PBS three times. OPD developing liquid was added at 100 μL/well, and reacted for 1-10 min at room temperature, shielding from light. 50 μL of 2 M H2SO4 was added to stop the reaction. A492 value was determined using wavelength-tunable microplate reader. The inhibition ratio of the samples can be calculated by the following equation: […]

[2] = biological target: EGFR (Epidermal Growth Factor Receptor 1) (Homo sapiens, UniProt P00533); assay: ELISA protein tyrosine kinase inhibition, EGFR; type: biochemical; conditions: ELISA, Poly(Glu, Tyr) 4:1 substrate, ATP 5 μM, test samples at 10-5 mol/l; read-out: EGFR inhibitory activity (IC50 class)
EGFR (Epidermal Growth Factor Receptor 1), sequence (P00533 25-1210): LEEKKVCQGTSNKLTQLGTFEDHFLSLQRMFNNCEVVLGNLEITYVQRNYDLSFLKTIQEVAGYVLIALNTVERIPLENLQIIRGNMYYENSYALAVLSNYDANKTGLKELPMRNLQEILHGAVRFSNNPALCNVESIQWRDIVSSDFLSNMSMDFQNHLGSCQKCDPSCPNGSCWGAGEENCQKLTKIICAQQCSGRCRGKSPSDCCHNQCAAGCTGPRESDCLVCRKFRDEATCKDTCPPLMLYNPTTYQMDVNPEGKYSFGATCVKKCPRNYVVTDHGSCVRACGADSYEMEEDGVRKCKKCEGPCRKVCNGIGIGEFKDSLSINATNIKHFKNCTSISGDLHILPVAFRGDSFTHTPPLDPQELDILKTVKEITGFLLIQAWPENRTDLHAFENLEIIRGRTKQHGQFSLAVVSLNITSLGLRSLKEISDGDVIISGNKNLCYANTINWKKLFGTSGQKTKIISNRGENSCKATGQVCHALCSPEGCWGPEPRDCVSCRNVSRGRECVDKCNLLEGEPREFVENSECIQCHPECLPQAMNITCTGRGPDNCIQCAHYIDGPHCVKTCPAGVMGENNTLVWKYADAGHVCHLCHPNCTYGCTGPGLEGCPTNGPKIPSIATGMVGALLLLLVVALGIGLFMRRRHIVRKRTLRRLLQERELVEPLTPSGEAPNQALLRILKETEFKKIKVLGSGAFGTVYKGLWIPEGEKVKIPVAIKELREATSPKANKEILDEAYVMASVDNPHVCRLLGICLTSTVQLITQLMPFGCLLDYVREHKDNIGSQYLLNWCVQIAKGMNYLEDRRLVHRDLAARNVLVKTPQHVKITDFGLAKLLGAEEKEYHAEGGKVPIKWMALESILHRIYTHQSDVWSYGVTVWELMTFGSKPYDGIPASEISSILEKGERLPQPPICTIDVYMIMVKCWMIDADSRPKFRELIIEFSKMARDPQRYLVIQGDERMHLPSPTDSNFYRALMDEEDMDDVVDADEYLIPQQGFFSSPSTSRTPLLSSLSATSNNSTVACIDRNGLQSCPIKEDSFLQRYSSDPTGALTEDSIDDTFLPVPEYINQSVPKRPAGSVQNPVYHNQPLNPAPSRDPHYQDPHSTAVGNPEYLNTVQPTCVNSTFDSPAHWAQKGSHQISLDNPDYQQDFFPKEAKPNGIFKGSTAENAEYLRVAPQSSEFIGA
Text: as §1, §2, §3, §4, §5

ErbB-2 (Epidermal Growth Factor Receptor 2), sequence (P04626 23-1255): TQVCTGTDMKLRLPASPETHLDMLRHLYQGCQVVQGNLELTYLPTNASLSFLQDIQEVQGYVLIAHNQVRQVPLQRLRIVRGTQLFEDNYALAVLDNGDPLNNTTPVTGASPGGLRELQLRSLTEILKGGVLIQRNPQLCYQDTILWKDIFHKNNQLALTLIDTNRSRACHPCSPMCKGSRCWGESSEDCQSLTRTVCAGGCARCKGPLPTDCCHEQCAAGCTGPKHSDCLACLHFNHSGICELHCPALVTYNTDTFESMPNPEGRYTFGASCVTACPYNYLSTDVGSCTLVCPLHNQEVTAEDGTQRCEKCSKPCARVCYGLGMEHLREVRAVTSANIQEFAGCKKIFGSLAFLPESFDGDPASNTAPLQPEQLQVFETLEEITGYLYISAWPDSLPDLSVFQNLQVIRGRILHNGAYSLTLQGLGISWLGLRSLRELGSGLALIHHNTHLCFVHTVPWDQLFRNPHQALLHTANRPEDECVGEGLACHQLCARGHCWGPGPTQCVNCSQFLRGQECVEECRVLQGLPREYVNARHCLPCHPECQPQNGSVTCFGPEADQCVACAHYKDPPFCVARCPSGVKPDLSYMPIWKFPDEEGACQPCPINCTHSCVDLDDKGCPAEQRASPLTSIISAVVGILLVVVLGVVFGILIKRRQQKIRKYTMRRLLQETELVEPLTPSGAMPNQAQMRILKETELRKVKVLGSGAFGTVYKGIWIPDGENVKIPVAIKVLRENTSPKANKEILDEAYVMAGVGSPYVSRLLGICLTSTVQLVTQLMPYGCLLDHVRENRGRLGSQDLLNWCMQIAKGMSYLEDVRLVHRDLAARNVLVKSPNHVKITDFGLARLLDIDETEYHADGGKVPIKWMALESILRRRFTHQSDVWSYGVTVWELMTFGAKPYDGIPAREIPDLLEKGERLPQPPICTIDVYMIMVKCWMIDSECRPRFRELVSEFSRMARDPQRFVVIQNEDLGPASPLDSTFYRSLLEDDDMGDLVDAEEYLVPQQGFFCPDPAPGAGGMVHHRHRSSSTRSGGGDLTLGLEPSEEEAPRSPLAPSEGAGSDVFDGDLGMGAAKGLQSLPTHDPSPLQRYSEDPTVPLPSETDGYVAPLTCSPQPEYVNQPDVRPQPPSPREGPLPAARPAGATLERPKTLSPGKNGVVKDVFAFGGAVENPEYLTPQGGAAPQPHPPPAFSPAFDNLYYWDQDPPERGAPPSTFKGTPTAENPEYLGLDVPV

Structure (SMILES)	IC50 [1] [µM]	IC50 [2] [µM]
O=C(O)C(Cc1ccccc1)NCc1ccc(-c2ccc3ncnc(Nc4ccc(OCc5cccc(F)c5)c(Cl)c4)c3c2)o1 (centres unmarked) [MS 24, N-(3-chloro-4-((3-fluorobenzyl)oxy)phenyl)-6-(5-((((1-carboxy-2-phenyl)ethyl)amino)methyl)-2-furyl)-4-quinazolinamine]	< 10	< 10
Oc1ccc(CCNCc2ccc(-c3ccc4ncnc(Nc5ccc(OCc6cccc(F)c6)c(Cl)c5)c4c3)o2)cc1 [MS 13, N-(3-chloro-4-((3-fluorobenzyl)oxy)phenyl)-6-(5-(((2-(4-hydroxyphenyl)ethyl)amino)methyl)-2-furyl)-4-quinazolinamine]	< 10	< 10
NC(CCCNCc1ccc(-c2ccc3ncnc(Nc4ccc(OCc5cccc(F)c5)c(Cl)c4)c3c2)o1)C(=O)O (centres unmarked) [MS 32, N-(3-chloro-4-((3-fluorobenzyl)oxy)phenyl)-6-(5-((((4-carboxy-4-amino)butyl)amino)methyl)-2-furyl)-4-quinazolinamine]	< 10	< 10
O=C(O)CNCc1ccc(-c2ccc3ncnc(Nc4ccc(OCc5cccc(F)c5)c(Cl)c4)c3c2)o1 [MS 22, N-(3-chloro-4-((3-fluorobenzyl)oxy)phenyl)-6-(5-(((carboxymethyl)amino)methyl)-2-furyl)-4-quinazolinamine]	< 10	< 10
NC(=O)CC(NCc1ccc(-c2ccc3ncnc(Nc4ccc(OCc5cccc(F)c5)c(Cl)c4)c3c2)o1)C(=O)O (centres unmarked) [MS 30, N-(3-chloro-4-((3-fluorobenzyl)oxy)phenyl)-6-(5-((((1-carboxy-2-aminoformyl)ethyl)amino)methyl)-2-furyl)-4-quinazolinamine]	< 10	< 10
Fc1cccc(COc2ccc(Nc3ncnc4ccc(-c5ccc(CNOCc6ccccc6)o5)cc34)cc2Cl)c1 [MS 19, N-(3-chloro-4-((3-fluorobenzyl)oxy)phenyl)-6-(5-(((benzyloxy)amino)methyl)-2-furyl)-4-quinazolinamine]	< 10	< 10
O=C(O)C(CS)NCc1ccc(-c2ccc3ncnc(Nc4ccc(OCc5cccc(F)c5)c(Cl)c4)c3c2)o1 (centres unmarked) [MS 29]	< 10	< 10
CCN(CC)Cc1ccc(-c2ccc3ncnc(Nc4ccc(OCc5cccc(F)c5)c(Cl)c4)c3c2)o1 [MS 4]	< 10	< 10
OCCCCC(O)CNCc1ccc(-c2ccc3ncnc(Nc4ccc(OCc5cccc(F)c5)c(Cl)c4)c3c2)o1 (centres unmarked) [MS 17, N-(3-chloro-4-((3-fluorobenzyl)oxy)phenyl)-6-(5-(((2,6-dihydroxyhexyl)amino)methyl)-2-furyl)-4-quinazolinamine]	< 10	< 10
Oc1cc(F)cc(CCNCc2ccc(-c3ccc4ncnc(Nc5ccc(OCc6cccc(F)c6)c(Cl)c5)c4c3)o2)c1 [MS 15, N-(3-chloro-4-((3-fluorobenzyl)oxy)phenyl)-6-(5-(((2-(3-hydroxy-5-fluorophenyl)ethyl)amino)methyl)-2-furyl)-4-quinazolinamine]	< 10	< 10
COc1cc(CCNCc2ccc(-c3ccc4ncnc(Nc5ccc(OCc6cccc(F)c6)c(Cl)c5)c4c3)o2)cc(OC)c1 [MS 14]	< 10	< 10
Fc1cc(Cl)cc(CCNCc2ccc(-c3ccc4ncnc(Nc5ccc(OCc6cccc(F)c6)c(Cl)c5)c4c3)o2)c1 [MS 16, N-(3-chloro-4-((3-fluorobenzyl)oxy)phenyl)-6-(5-(((2-(3-chloro-5-fluorophenyl)ethyl)amino)methyl)-2-furyl)-4-quinazolinamine]	> 10	< 10
Fc1cccc(COc2ccc(Nc3ncnc4ccc(-c5ccc(CNCc6cccc(Cl)c6)o5)cc34)cc2Cl)c1 [MS 11, N-(3-chloro-4-((3-fluorobenzyl)oxy)phenyl)-6-(5-(((3-chlorobenzyl)amino)methyl)-2-furyl)-4-quinazolinamine]	> 10	< 10
CCCCCCNCc1ccc(-c2ccc3ncnc(Nc4ccc(OCc5cccc(F)c5)c(Cl)c4)c3c2)o1 [MS 2, N-(3-chloro-4-((3-fluorobenzyl)oxy)phenyl)-6-(5-((n-hexylamino)methyl)-2-furyl)-4-quinazolinamine]	> 10	< 10
O=[N+]([O-])c1ccc(CCNCc2ccc(-c3ccc4ncnc(Nc5ccc(F)c(Cl)c5)c4c3)o2)cc1 [MS 40, N-(3-chloro-4-fluorophenyl)-6-(5-(((2-(4-nitrophenyl)ethyl)amino)methyl)-2-furyl)-4-quinazolinamine]	< 10	–
O=C(O)C(CO)NCc1ccc(-c2ccc3ncnc(Nc4ccc(OCc5cccc(F)c5)c(Cl)c4)c3c2)o1 (centres unmarked) [MS 28, N-(3-chloro-4-((3-fluorobenzyl)oxy)phenyl)-6-(5-((((1-carboxy-2-hydroxy)ethyl)amino)methyl)-2-furyl)-4-quinazolinamine]	< 10	< 10
O=[N+]([O-])c1ccc(CCNCc2ccc(-c3ccc4ncnc(Nc5ccc(OCc6cccc(F)c6)c(Cl)c5)c4c3)o2)cc1 [MS 12, N-(3-chloro-4-((3-fluorobenzyl)oxy)phenyl)-6-(5-(((2-(4-nitrophenyl)ethyl)amino)methyl)-2-furyl)-4-quinazolinamine]	< 10	< 10
NC1CCCC(NCc2ccc(-c3ccc4ncnc(Nc5ccc(OCc6cccc(F)c6)c(Cl)c5)c4c3)o2)C1 (centres unmarked) [MS 21, N-(3-chloro-4-((3-fluorobenzyl)oxy)phenyl)-6-(5-(((3-aminocyclohexyl)amino)methyl)-2-furyl)-4-quinazolinamine]	< 10	< 10
CCNCc1ccc(-c2ccc3ncnc(Nc4ccc(OCc5cccc(F)c5)c(Cl)c4)c3c2)o1 [MS 3, N-(3-chloro-4-((3-fluorobenzyl)oxy)phenyl)-6-(5-((ethylamino)methyl)-2-furyl)-4-quinazolinamine]	< 10	< 10
NC(CCCNCc1ccc(-c2ccc3ncnc(Nc4ccc(F)c(Cl)c4)c3c2)o1)C(=O)O (centres unmarked) [MS 37, N-(3-chloro-4-fluorophenyl)-6-(5-((((4-carboxy-4-amino)butyl)amino)methyl)-2-furyl)-4-quinazolinamine]	< 10	–
NCCCC(NCc1ccc(-c2ccc3ncnc(Nc4ccc(F)c(Cl)c4)c3c2)o1)C(=O)O (centres unmarked) [MS 38, N-(3-chloro-4-fluorophenyl)-6-(5-((((1-carboxy-4-amino)butyl)amino)methyl)-2-furyl)-4-quinazolinamine]	< 10	–
COCCCCNCc1ccc(-c2ccc3ncnc(Nc4ccc(OCc5cccc(F)c5)c(Cl)c4)c3c2)o1 [MS10·dimethanesulfonate, N-(3-chloro-4-((3-fluorobenzyl)oxy)phenyl)-6-(5-(((4-methoxybutyl)amino)methyl)-2-furyl)-4-quinazolinamine]	< 10	< 10

Source: patent US9499530B2 (HANGZHOU MINSHENG INSTITUTES FOR PHARMA RESEARCH, priority 2011, dated 2016)
